Measurements: BindingDB's records for doi:10.1016/j.bmcl.2007.06.058 (Mahidol University, 2007)

assay: Inhibition of rhFGF2-induced cellular proliferation of HUVEC

Compound | IC50 [µM]
COc1cccc(-c2ccc3c(c2)NC(=O)/C3=C\c2[nH]c(C)c(CCC(=O)O)c2C)c1 [3-(5-{[(3Z)-6-(3-methoxyphenyl)-2-oxo-2,3-dihydro-1H-indol-3-ylidene]methyl}-2,4-dimethyl-1H-pyrrol-3-yl)propanoic acid] | 17.9
Cc1[nH]c(/C=C2\C(=O)Nc3cc(-c4ccccc4)ccc32)c(C)c1CCC(=O)O | > 50
COc1cc(OC)cc(-c2ccc3c(c2)NC(=O)/C3=C\c2[nH]c(C)c(CCC(=O)O)c2C)c1 [(Z)-3-(5-((6-(3,5-dimethoxyphenyl)-2-oxoindolin-3-ylidene)methyl)-2,4-dimethyl-1H-pyrrol-3-yl)propanoic acid] | 18.2
